According to PMC7821181, “MS Binding Assays for Glycine Transporter 2 (GlyT2) Employing Org25543 as Reporter Ligand” (Chemmedchem, 2020):

Target: T1, GlyT2 (Homo sapiens, UniProt Q9Y345)
T1 construct: host or cells: HEK293 cells stably expressing hGlyT2; crude membrane fractions
T1 sequence (Q9Y345 1-797): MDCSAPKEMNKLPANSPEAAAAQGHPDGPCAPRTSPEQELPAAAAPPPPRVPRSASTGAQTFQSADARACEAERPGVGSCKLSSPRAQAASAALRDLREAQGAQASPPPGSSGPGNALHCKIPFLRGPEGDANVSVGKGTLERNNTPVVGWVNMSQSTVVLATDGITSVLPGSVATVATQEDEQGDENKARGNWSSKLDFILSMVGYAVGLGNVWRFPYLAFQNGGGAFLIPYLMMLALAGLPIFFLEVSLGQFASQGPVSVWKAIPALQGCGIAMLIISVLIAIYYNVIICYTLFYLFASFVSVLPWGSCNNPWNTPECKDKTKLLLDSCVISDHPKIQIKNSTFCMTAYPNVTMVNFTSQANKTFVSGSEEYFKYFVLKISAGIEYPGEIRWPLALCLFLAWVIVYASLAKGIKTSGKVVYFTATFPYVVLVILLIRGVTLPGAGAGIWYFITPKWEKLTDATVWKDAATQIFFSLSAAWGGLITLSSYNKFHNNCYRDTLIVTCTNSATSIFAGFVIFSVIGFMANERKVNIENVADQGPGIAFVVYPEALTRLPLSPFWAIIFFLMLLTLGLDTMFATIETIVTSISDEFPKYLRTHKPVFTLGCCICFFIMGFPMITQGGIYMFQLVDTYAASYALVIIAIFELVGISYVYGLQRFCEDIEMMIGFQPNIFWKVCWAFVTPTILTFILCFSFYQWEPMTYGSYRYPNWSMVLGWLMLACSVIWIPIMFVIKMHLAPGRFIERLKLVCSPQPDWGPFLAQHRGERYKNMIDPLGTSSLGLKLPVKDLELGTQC
Test: preliminary Org25543 saturation experiments in absence or presence of glycine
Type: binding
Conditions: for Bmax in relation to control without glycine (100 %) / Kd in relation to control without glycine (100 %): mean ± SD, two experiments
Procedure: glass fiber, 1.0 µm, 350 µL; Pall Corporation, Port Washington, NY, USA) were washed with water (3 x 200 µL) and methanol (3 x 200 µL) and subsequently pre-incubated for 2 h at room temperature with 0.5 % polyethylenimine (PEI). […]
KCl, 1 mM MgCl2, 1 mM CaCl2, pH 7.5) in polypropylene 96 well plates (1.2 mL well volume, Sarstedt, Nümbrecht, Germany) in total volume of 250 µL at 37 °C in a shaking water bath. After the incubation times for the filters and incubation samples had been expired, PEI was removed from the filters by vacuum filtration and 210 µL aliquots of the incubation samples were transferred on the filters and were removed by vacuum filtration as well. The filters were washed with ammonium ac etate buffer (3 x 200 µL, 154 mM, pH 7.4) and were dried at 50 °C for 1 h. After that the remaining Org25543 on the filters were washed down with acetonitrile (3 x 70 µL) containing [ 2H7]Org25543 (125 pM) and 52.5 µL ammonium bicarbonate buffer (5 mM, pH 7.8) was added to the samples to adjust the sample solvent to the mobile phase (5 mM ammonium bicarbonate buffer ( pH 7.8)/acetonitrile ( 20:80, v/v)). Finally, the samples were subjected to LC-ESI-MS/MS quantification without further sample preparation. […]
Investigating the inhibition mode of glycine in preliminary Org25543 saturation […]
In these preliminary experiments saturation experiments were performed in the same way as it is described in the Material and methods part except that Org25543 and GlyT2 were incubated either in the absence of glycine or in the presence of 2, 20 or 200 mM glycine. The saturation isotherms of a representative experiment are depicted […]
(control) in all experiments and Kd and Bmax values determined in the presence of the […]

## COc1cc(C(=O)NCC2(N(C)C)CCCC2)cc(OC)c1OCc1ccccc1 [Org25543, N‐[[1‐(dimethylamino)cyclopentyl]methyl]‐3,5‐dimethoxy‐4‐(phenylmethoxy)benzamide]
2 mM glycine
  Bmax in relation to control without glycine (100 %): 106 ± 13%
  Kd in relation to control without glycine (100 %): 129 ± 24%
20 mM glycine
  Bmax in relation to control without glycine (100 %): 101 ± 12%
  Kd in relation to control without glycine (100 %): 222 ± 56%
200 mM glycine
  Kd in relation to control without glycine (100 %): 814 ± 154%
In the presence of 2 mM glycine
  B max (representative preliminary saturation experiment): 9.75 pmol (mg protein)-1
In the presence of 20 mM glycine
  B max (representative preliminary saturation experiment): 9.24 pmol (mg protein)-1
In the presence of 200 mM glycine
  B max (representative preliminary saturation experiment): 8.74 pmol (mg protein)-1
Without glycine
  B max (representative preliminary saturation experiment): 8.45 pmol (mg protein)-1
Without glycine, read-out: K d of Org25543 (representative preliminary saturation experiment)
  Kd: 5.18 nM
